Like-named read-outs stand apart in the source and are kept apart here.
Columns and labels:
[1] = In vivo efficacy, biodistribution and tolerability of 225Ac-DPI-4452 in HT-29 xenograft mouse model; parameters: species or system NMRI nude mice; conditions: female, NMRI nude, mouse, iv, total radioactivity, HT-29 model, 15 kBq, 4 hours after dosing
[2] = tested on: HT-29 (CRC) human cancer cell line xenograft; assay: as above; parameters: species or system NMRI nude mice; conditions: HT-29 model
[3] = In vivo efficacy, biodistribution and tolerability of 225Ac-DPI-4452 in SK-RC-52 xenograft mouse model; parameters: species or system NMRI nude mice; conditions: female, NMRI nude, mouse, iv, total radioactivity, SK-RC-52 model, 15 kBq, 4 hours after dosing
[4] = tested on: SK-RC-52 (ccRCC) human cancer cell line xenograft; assay: as above; parameters: species or system NMRI nude mice; conditions: SK-RC-52 model
[5] = Plasma stability assay, mouse plasma; conditions: mouse plasma, 37°C, 24 h
[6] = Plasma stability assay, human plasma; conditions: 37°C
[7] = Biodistribution study (SPECT/CT) in SK-RC-52 tumor-bearing mice with or without gelofusine; format: in vivo, NMRI nude mice; conditions: female, NMRI nude, mouse, in vivo, iv, total radioactivity, peak tumor uptake, typical (conclusion)
Experimental: The effect on tumor uptake of prior injection of gelofusine for kidney protection was investigated in mice bearing the SK-RC-52 tumor. Biodistribution was evaluated using in vivo SPECT/CT imaging. Prior to the in vivo study the compounds (ligands) were initially radiolabeled with In-111 and the stability of radiolabeled compounds was evaluated in buffer at three different timepoints.
The study was performed in female NMRI nude mice (approximately 6 weeks of age) from Janvier Labs, France, housed up to 5 mice per cage.
The column was washed with 2 mL water, and then the final product was eluted from the column in EtOH solution (50%) • The sample was formulated in PBS to the final concentration of 150 MBq/mL and 5 nmol/mL.
SK-RC-52 cells were cultured in RPMI 1640 with GlutaMax-I (Thermo Fisher Scientific #61870044) supplemented with 10% fetal bovine serum+1% penicillin/streptomycin, harvested, washed twice in RPMI 1640 and resuspended at 2×10^7 cells/mL in RPMI 1640. HT-29 cells were cultured in McCoy's 5a Medium Modified (Sigma #M9309). For inoculation of HT-29 cells, cells were harvested, washed twice in PBS and resuspended at 5×10^7 cells/mL in PBS. Cells were kept on ice until inoculation.
Animals were anaesthetized (isoflurane, 2-4% in ambient air supplemented with 100% 02) prior to tumor inoculation. The tumor cells (100 μL suspension of either SK-RC-52 cells (2×10^6 cells/animal) or HT-29 cells (5×10^6 cells/animal)) were subcutaneously inoculated in the right flank using a 1-mL syringe equipped with a 27 G needle. Tumor growth and animal weight were measured twice per week. Tumor size was measured by caliper and the volume was estimated using the following formula: 0.52×(length×width^2). When tumor sizes reached 150-250 mm^3, animals were randomized into groups (n=3) of similar average tumor volume and body weight.
Animals were injected intravenously with In-111-labeled compounds (single bolus, 22.3-31.2 MBq, ˜1 nmol ligand, injection volume: 100 μL) in the lateral tail vein using a 29 G syringe.
CT was performed with helical scan, 300 ms exposure, reconstruction resolution of 250 μm. SPECT was performed with multi-pinhole scan and a 30 s frame time. For the quantification of the radioactivity uptake, regions of interests (ROIs) were drawn over the tumor, kidney, liver, and heart (estimate of blood) identified on the images. Uptake was expressed as percent of injected dose per gram tissue (% ID/g).

mouse CAIX = biological target: T1, mouse CAIX (Mus musculus, UniProt Q8VHB5); assay: Radioligand saturation binding on CHO-msCAIX; conditions: CHO-msCAIX, single experiment
T1 construct: host or cells: CHO-VGT / CHO cells
Experimental: (§1) After attainment of equilibrium, the cells were harvested, and the bound fraction of the compounds was measured. The resulting saturation binding data were analyzed using Graph Pad Prism 8.3.
(§2) CHO cells transfected with human, dog, and mouse CAIX (CHO-huCA9 T04J-1/20 K1, CHO-dogCA9 T05J-9/20 K4, CHO-murCA9 T05J-3/20 K4) were obtained from InSCREENex (Germany).
(§3) A molar excess of 3BP-3565 was used as a blocking peptide to assess non-specific binding in autoradiographic studies. 3BP-3565 binds with a similar affinity to CAIX and blocks binding sites of test compounds. For the blocking solution, a 10 mM stock solution of 3BP-3565 was prepared by dissolution in DMSO.
(§4) CHO cells were maintained in Ham's medium supplemented with 10% fetal bovine serum, 2 mM L-glutamine, 100 U/mL Penicillin and 0.1 mg/mL streptomycin under standard cell culture conditions. The cells were grown in uncoated cell culture flasks (150 cm^2, Biochrom) to subconfluence and then split 1:2-1:3. Approximately 24 hours before the assay, cells were detached by incubation with Accutase and carefully tapping the flasks. Detached cells were resuspended in medium and collected by centrifugation (300 g, 5 min, RT). Cell pellets were resuspended in cell culture medium and counted using a particle counter (CASY Model TT, Scharfe Systems, Germany). Cell concentrations were adjusted to 3×10^5 mL^−1, and 1.000 μL per well of the suspension were dispensed into poly-D-lysine-coated flat-clear-bottom 24 well plates.
(§5) Compound radiolabeling was performed as follows. […] Then, 25 mg/mL methionine in 1 M sodium acetate buffer pH 5 was added at a final concentration of 0.1 M sodium acetate. Subsequently, the mixture was heated to 80° C. for 25 min, followed by cooling for 5 minutes. Finally, 20 μL of 200 mg/mL ascorbic acid solution, 2.5 μL of 5 mg/mL DTPA and 2.5 μL of 5% TWEEN-20 per 100 μL reaction mixture were added, resulting in the concentrated study solution. For quality control, an aliquot of the labeling solution was diluted 1:40 with 0.1% TWEEN-20 in 0.1 M sodium acetate buffer pH 5. Five microliters of the diluted labeling solution were injected onto a Poroshell SB-C18 2.1×50 mm, 2.7 μm column. HPLC analysis was performed as follows: Gradient A: H2O, 0.1% TFA, Gradient B: Acetonitrile (MeCN), gradient from 5% B to 70% B within 15 min, flow rate of 0.5 mL/min; detector: NaI, DAD 215 nm. The peak eluting with the dead volume represents free radionuclide, the peak eluting with the ligand-specific retention time as determined with a non-labeled sample represents the radiolabeled compound.
The radioligand saturation binding on CHO-msCAIX was determined as follows. […] Their associated radioactivity was counted using a gamma counter and normalized to the measured protein concentration of each well. […]

[8] = dog, in vivo
human CAIX = human CAIX (Homo sapiens, UniProt Q16790); assay: Radioligand saturation binding and equilibration on CHO-huCAIX; parameters: host or cells: CHO-VGT / CHO cells
Experimental: as §1, §2, §3, §4, §5
The assessment of the time needed until attainment of equilibration on CHO-huCAIX and CHO-dgCAIX was performed as follows. The 10 mM 3BP-3565 stock solution was diluted with assay medium (Ham's medium without additives) to prepare an 8-μM blocking working solution. The radiolabeling mixtures were diluted with assay medium to prepare 160 nM radioligand working solutions. Subsequently, 1.6 and 3.2 nM radioligand dilutions were prepared by diluting the radioligand working solutions 1:100 and 1:50, respectively, with assay medium. Approximately 24 hours after re-seeding (3×10^5 mL^−1 cells per well), the medium was aspirated, and the cells were washed once with assay medium (700 μL). To determine total binding, 700 μL of binding medium and 100 μL of the radioligand dilutions were added to the wells in triplicates.
To determine non-specific binding, 600 μL of binding medium, 100 μL of the […] 3BP-3565 blocking solution and 100 μL of the radioligand dilutions were added to the wells in triplicates. The plates were incubated for 1 h, 3 h, 6 h, and 8 h at 37° C. under standard cell culture conditions (5% CO2). At the end of the incubation time, the plates were placed on ice while aspirating the radioligand solutions. Subsequently, the cells were washed with ice-cold PBS (0.5 mL, 1 mL, 1 mL). […]

[9] = colon, small intestine and stomach
[10] = kidney, read-out: kidney uptake

T1 sequence (Q8VHB5 32-437): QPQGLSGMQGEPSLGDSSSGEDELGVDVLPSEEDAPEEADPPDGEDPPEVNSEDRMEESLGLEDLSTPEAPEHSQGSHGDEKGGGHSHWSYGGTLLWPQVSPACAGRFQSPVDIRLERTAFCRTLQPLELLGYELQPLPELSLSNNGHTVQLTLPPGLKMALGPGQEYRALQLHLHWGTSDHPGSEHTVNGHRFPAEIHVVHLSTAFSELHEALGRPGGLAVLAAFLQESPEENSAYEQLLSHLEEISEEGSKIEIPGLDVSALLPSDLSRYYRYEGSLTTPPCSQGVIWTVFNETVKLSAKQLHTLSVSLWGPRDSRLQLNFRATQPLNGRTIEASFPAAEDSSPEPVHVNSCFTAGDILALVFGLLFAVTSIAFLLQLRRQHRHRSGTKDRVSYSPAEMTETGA

SMILES: CC(C)C[C@@H]1NC(=O)[C@H](Cc2cccc(NC(=O)CCCS(N)(=O)=O)c2)NC(=O)[C@H](CC(=O)O)NC(=O)[C@H]2CCCN2C(=O)[C@H](CCC(=O)O)NC(=O)[C@@H](NC(=O)[C@H](CCC(N)=O)NC(=O)CN2CCN(C(=O)CN3CCN(CC(=O)O)CCN(CC(=O)O)CCN(CC(=O)O)CC3)CC2)CSCc2cccc(c2)CSC[C@@H](C(N)=O)NC(=O)[C@H](CO)NC(=O)[C@H](Cc2c[nH]c3ccccc23)NC(=O)[C@H]([C@@H](C)O)NC1=O [^225Ac-DPI-4452, metal not drawn]
- tissue uptake at 4 h ([1]; HT-29 tumor, ex vivo gamma counter, read-out: tumor uptake): 11.3 ± 1.3 %ID/g
- tissue uptake at 4 h [1, 9]: < 1.1 %ID/g
- tissue uptake at 4 h [1, 10]: 7.9 ± 1.3 %ID/g
- creatinine values versus vehicle ([2]; 135 kBq, day 14): slightly elevated
- tolerability of treatment ([2]; single 15, 45 or 135 kBq i.v.): well tolerated
- tissue uptake at 4 h ([3]; SK-RC-52 tumor, ex vivo gamma counter, read-out: tumor uptake): 39.1 ± 1.6 %ID/g
- tissue uptake at 4 h [3, 9]: < 1.1 %ID/g
- tissue uptake at 4 h [3, 10]: 4.9 ± 0.2 %ID/g
- creatinine values versus vehicle ([4]; 135 kBq, day 14): slightly elevated
- tolerability of treatment ([4]; single 15, 45 or 135 kBq i.v.): well tolerated

SMILES: CC(C)C[C@@H]1NC(=O)[C@H](Cc2cccc(NC(=O)CCCS(N)(=O)=O)c2)NC(=O)[C@H](CC(=O)O)NC(=O)[C@H]2CCCN2C(=O)[C@H](CCC(=O)O)NC(=O)[C@@H](NC(=O)[C@H](CCC(N)=O)NC(=O)CN2CCN(C(=O)CN3CCN(CC(=O)O)CCN(CC(=O)O)CCN(CC(=O)O)CC3)CC2)CSCc2cccc(c2)CSC[C@@H](C(N)=O)NC(=O)[C@H](CO)NC(=O)[C@H](Cc2c[nH]c3ccccc23)NC(=O)[C@H]([C@@H](C)O)NC1=O (natLu complex, metal not drawn) [3BP-4555]
- % intact compound remaining (incubation time) [5]: >95%
- % intact compound remaining after 24 h incubation [6]: >95%

SMILES: CC(C)C[C@@H]1NC(=O)[C@H](Cc2ccc(NC(=O)CCS(N)(=O)=O)cc2)NC(=O)[C@H](CC(=O)O)NC(=O)[C@H]2CCCN2C(=O)[C@H](CCC(=O)O)NC(=O)[C@@H](NC(=O)[C@H](CCC(N)=O)NC(=O)CN2CCN(CC(=O)O)CCN(CC(=O)O)CCN(CC(=O)O)CC2)CSCc2cccc(c2)CSC[C@@H](C(N)=O)NC(=O)[C@H](CO)NC(=O)[C@H](Cc2c[nH]c3ccccc23)NC(=O)[C@H]([C@@H](C)O)NC1=O [[^111In]In-DPI-4501, metal not drawn]
- tissue uptake [7]: 7 %ID/g
- Mean pKd ± SD (mouse CAIX): 7.9
- Kd (mouse CAIX; read-out: pKd (converted)): 12.6 nM
- half-life [8]: 68.9 min
- half-life ([8]; iv): 5.88 min
- koff (human CAIX; CHO-huCAIX): 0.00012 s⁻¹
- Kd (human CAIX; CHO-huCAIX, first independent experiment, read-out: pKd (converted)): 0.158 nM
- Kd (human CAIX; CHO-huCAIX, read-out: Mean pKd ± SD (converted)): 0.251 nM
- Kd (human CAIX; CHO-huCAIX, second independent experiment, read-out: pKd (converted)): 0.398 nM
- Kd (human CAIX; human CAIX expressed in CHO cells, 8 h at 37°C, read-out: pKd (converted)): ≤ 1 nM

Source: patent publication US20250339569A1, “CARBONIC ANHYDRASE IX LIGANDS” (priority 2021, published 2025)
